This note sets out measurements from publication PMC8689140 (Frontiers in Pharmacology, 2021).

Data set [1] in a line: Metabolite identification in dog plasma after oral dose. The class given is in vivo. Particulars: dog plasma after oral administration. On the procedure:
Male beagle dogs were randomly divided into four groups. […] The dogs were fasted for 12 h before treatment and 4 h after treatment, but they were granted free access to water. Blood was collected from the vein before administration and 0.083 (only for injection groups), 0.25, 0.5, 1, 2, 3, 4, 6, 8, 12 and 24 h, and placed it in heparinized tubes, and centrifuged it at 8,000 rpm for 10 min at 4°C to separate the plasma, which we stored at −20 °C until analysis. The plasma samples were pretreated by protein precipitation with acetonitrile and quantitated by the validated LC-MS/MS (Shimadzu Exion-Triple Quad 4500) method.
Then, four volumes of acetonitrile (containing 0.1% formic acid) were added into the pooled plasma samples to precipitate the proteins. After vortex-mixing and centrifugation, the supernatants were dried under a nitrogen stream. Then, the residues were resuspended in 100 μl of acetonitrile/water (1:1, v/v) with 0.1% formic acid. After centrifugation, the supernatants were analyzed by UPLC–UV-HRMS for metabolite identification.
The analysis was performed on Acquity UPLC system coupled with a diode array detector (Waters Corporation, United States) and Q Exactive™ Orbitrap HRMS (Thermo Electron Corporation, United States). […] The mobile phase was composed water containing 0.1% formic acid (A) and acetonitrile containing 0.1% formic acid (B). The flow rate was 0.40 ml/min. The elution conditions were the following linear gradient for metabolite identify in HLMs: 0–1 min: 95% A, 1–2 min: 80% A, 2–5 min: 80% A, 5–8 min: 70% A, 8–12 min: 30% A, 12–15 min: 5% A, 15–16 min: 95% A, and 16–18 min: 95% A. The elution conditions were the following for metabolite identify in dog plasma: 0–1 min: 95% A, 1–30 min: 70% A, 30–32 min: 30% A, 32–33 min: 5% A, 33–35 min: 95% A, and 35–40 min: 95% A.
HRMS were operated at positive ion mode using a heating electrospray ionization source (HESI). The optimized operating parameters were set as follows: sheath gas (nitrogen) flow rate of 35 psi, aux gas (nitrogen) flow rate of 10 psi, HESI and capillary temperature of 350°C, and spray voltage of 3.5 kV. The metabolites were detected by full MS/dd-MS^2 analysis from m/z 100 to m/z 1,000. The resolution of the first-class scan and second-class scan was 70 000 and 17 500, respectively. The collision energy for collision induced dissociation (NCE) was set to 20, 40 and 60 eV. The loop count was set to five and the dynamic exclusion duration to 10 s. […] Thermo Compound Discover software was used to identify expected and unknown metabolites, and we finally proposed (+)-13e metabolic pathways based on the deduced metabolites and relevant drug biotransformation knowledge.

The nature of data set [2]: Metabolite identification in liver microsomes from humans, dogs and rats (stated across species). The class given is in vitro ADME, human, dog, rat. Particulars: liver microsomes from humans, rats, and dogs. On the procedure:
Human, rat and dog liver microsomes were carefully thawed on ice prior to the experiment and diluted to 1 mg/ml in100 mM sodium phosphate buffer (pH 7.4) containing 10 mM magnesium chloride. […] After 3 min of preincubation at 37°C, the reactions were initiated by adding 20 µL of NADPH (20 mM) and then incubated at 37°C in a shaking water bath for 60 min. All samples were prepared in duplicates. The reactions were terminated by adding 600 µl of ice-cold acetonitrile and stored at −20°C until analysis. Control samples without NADPH and 0-time point samples were included. As a positive control, testosterone (10 µM) which was metabolized to produce the hydroxylation metabolite was used as a substrate to confirm the activity of the incubation system. Next, the samples were centrifuged at 13,000 rpm for 10 min, the supernatant was separated and evaporated to dryness under a nitrogen stream. The residue was resuspended in 100 μl of acetonitrile, after centrifugation, the supernatants were analyzed by UPLC–UV-HRMS.
The analysis was performed on Acquity UPLC system coupled with a diode array detector (Waters Corporation, United States) and Q Exactive™ Orbitrap HRMS (Thermo Electron Corporation, United States). […]
HRMS were operated at positive ion mode using a heating electrospray ionization source (HESI). […] The metabolites were detected by full MS/dd-MS^2 analysis from m/z 100 to m/z 1,000. […]
Background: Liver microsomes are a subcellular fraction often used to study metabolism.

SMILES strings stand for the structures.

For the compound `COc1cc2c(cc1OCC(F)(F)F)CCN1CC(CC(C)C)C(O)CC21` (single isomer, unassigned; (+)) [(+)-13e, (+)-9-(2,2,2-trifluoroethoxy)-α-dihydrotetrabenazine], the “O-detrifluoroethylation at the nine position” value in data set [1] and in data set [2] was “did not occur” each time.
